IC50 data for eleven compounds are collected here from ChEMBL document CHEMBL1130483, “The synthesis and evaluation of functionalized estratropones: Potent inhibitors of tubulin polymerization” (Bioorg Med Chem Lett, 1997).

As usually defined, the IC50 is the concentration that gives 50% inhibition. Low values mean higher potency, high ones lower potency.

This assay concerns the target Tubulin (Bos taurus, UniProt Q6B856+Q862L2+Q862F3). Nature of the assay: Compound was evaluated for inhibition of tubulin polymerization using purified bovine brain tubulin, activity expressed as IC50. It is filed as functional, tissue-based.
`C[C@]12CC[C@@H]3c4cc(O)c(=O)ccc4CC[C@H]3[C@@H]1CC[C@@H]2O`: the half-inhibitory concentration (IC50) amounted to 14.9 µM. This lies in the double-digit micromolar range. Then `C/N=c1/cc2c(ccc1O)[C@H]1CC[C@]3(C)[C@@H](O)CC[C@H]3[C@@H]1CC2`, with 19.4 µM; and `CN(C)c1ccc2c(cc1=O)CC[C@@H]1[C@@H]2CC[C@]2(C)[C@@H](O)CC[C@@H]12`, with 14.3 µM; and `C[C@]12CC[C@@H]3c4ccc(=O)c(N)cc4CC[C@H]3[C@@H]1CC[C@@H]2O`, with 9.2 µM. Then `C[C@]12CC[C@@H]3c4ccc(=N)c(O)cc4CC[C@H]3[C@@H]1CC[C@@H]2O`, with 14.4 µM. With `C/N=c1\ccc2c(cc1O)CC[C@@H]1[C@@H]2CC[C@]2(C)[C@@H](O)CC[C@@H]12`, the IC50 worked out at 60.7 µM.

In the case of `CN(C)c1cc2c(ccc1=O)[C@H]1CC[C@]3(C)[C@@H](O)CC[C@H]3[C@@H]1CC2`, the half-maximal inhibitory concentration (IC50) was 46.8 µM. Regarding `C[C@]12CC[C@@H]3c4ccc([N+](=O)[O-])c(=O)cc4CC[C@H]3[C@@H]1CC[C@@H]2O`, the half-inhibitory concentration (IC50) came to 52 µM. The same measure for `C[C@]12CC[C@@H]3c4cc(N)c(=O)ccc4CC[C@H]3[C@@H]1CC[C@@H]2O`: 16.5 µM. In turn, `C[C@]12CC[C@@H]3c4ccc(=O)c(O)cc4CC[C@H]3[C@@H]1CC[C@@H]2O` registered an IC50 of 22.8 µM. Consider `C=Cc1ccc2c(cc1=O)CC[C@@H]1[C@@H]2CC[C@]2(C)[C@@H](O)CC[C@@H]12`, for which the 50% inhibitory concentration (IC50) is 14.2 µM.
